From patent publication US10590113B2, “6-hydroxy-4-oxo-1,4-dihydropyrimidine-5-carboxamides as APJ agonists” (priority 2016, dated 2020)
pEC50: −log10 of the molar value.

target: T1, human APJ receptor (Homo sapiens, UniProt P35414); assay: Intracellular cAMP Accumulation Assay (APJ hcAMP, HTRF); type: cell-based; settings: not given
T1 construct: expressed in transfected cells; host or cells: HEK293
T1 sequence (P35414 1-380): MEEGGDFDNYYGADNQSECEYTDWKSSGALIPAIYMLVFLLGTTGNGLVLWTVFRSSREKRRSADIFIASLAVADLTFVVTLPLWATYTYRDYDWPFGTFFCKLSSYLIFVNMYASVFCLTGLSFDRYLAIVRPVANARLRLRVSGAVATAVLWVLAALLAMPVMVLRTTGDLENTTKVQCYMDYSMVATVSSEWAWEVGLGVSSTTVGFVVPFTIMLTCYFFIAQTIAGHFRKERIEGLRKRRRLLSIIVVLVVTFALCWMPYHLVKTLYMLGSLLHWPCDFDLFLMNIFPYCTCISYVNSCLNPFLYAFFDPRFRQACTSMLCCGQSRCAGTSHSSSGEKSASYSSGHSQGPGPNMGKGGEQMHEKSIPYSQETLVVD
In short: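 Stably transfected HEK293 cells (5,000/well) incubated 30 min at room temperature with serially diluted compound, […] and 2 μM forskolin. cAMP measured by HTRF after 60 min with detection reagents, quantified against a cAMP standard curve; EC50 from variable-slope sigmoidal fit of inhibition of forskolin-stimulated cAMP.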

Row | SMILES | pEC50
1 | [2H]C([2H])([2H])Oc1cccc(OC([2H])([2H])[2H])c1-n1c(COCC)nc(=O)c(C(=O)N2CC[C@H](c3ccccc3)C2)c1O [Example 106, 1-[2,6-bis(^2H3)methoxyphenyl]-2-(ethoxymethyl)-6-hydroxy-5-[(3R)-3-phenylpyrrolidine-1-carbonyl]-1,4-dihydropyrimidin-4-one] | 8.00 to 11.00
2 | CCCCc1nc(=O)c(C(=O)N2CCC(c3ccc(Cl)cn3)C2)c(O)n1-c1c(OC)cccc1OC (stereo not shown) [Example 1, 2-Butyl-5-(3-(5-chloropyridin-2-yl)pyrrolidine-1-carbonyl)-1-(2,6-dimethoxyphenyl)-6-hydroxypyrimidin-4(1H)-one] | 8.00 to 11.00

same assay, conditions: HEK293 cells stably expressing human APJ receptor; inhibition of forskolin-mediated cAMP production; read-out: Human APJ cAMP EC50 potency range

Row | pEC50 | SMILES
3 | 8.00 to 11.00 | COc1ccccc1C1CCN(C(=O)c2c(O)n(-c3c(OC)cccc3OC)c(-c3cncc(C)c3)nc2=O)C1 (stereo not shown) [Example 7, 1-(2,6-dimethoxyphenyl)-6-hydroxy-5-(3-(2-methoxyphenyl)pyrrolidine-1-carbonyl)-2-(5-methylpyridin-3-yl)pyrimidin-4(1H)-one]
4 | 8.00 to 11.00 | CCCCc1nc(=O)c(C(=O)N2CC[C@H](c3ccccc3)C2)c(O)n1-c1c(C2CC2)cccc1C1CC1 [Example 2, (R)-2-Butyl-1-(2,6-dicyclopropylphenyl)-6-hydroxy-5-(3-phenylpyrrolidine-1-carbonyl)pyrimidin-4(1H)-one]
5 | 8.00 to 11.00 | C=CCCc1nc(O)c(C(=O)N2CC[C@H](c3ccccc3)C2)c(=O)n1-c1c(C)cccc1OC (single isomer, unassigned) [Example 8″]
6 | 8.00 to 11.00 | CCOCc1nc(=O)c(C(=O)N2CCC(c3ccccn3)C2)c(O)n1-c1c(OC)cccc1OC (stereo not shown) [Example 3, 1-(2,6-Dimethoxyphenyl)-2-(ethoxymethyl)-6-hydroxy-5-(3-(pyridin-2-yl)pyrrolidine-1-carbonyl)pyrimidin-4(1H)-one]

same assay, conditions: human APJ, cAMP accumulation; potency range class; read-out: hAPJ cAMP EC50 Potency range

Row | SMILES | pEC50
7 | COc1cccc(OC)c1-n1c(-c2csc(C)n2)nc(=O)c(C(=O)N2CCC(c3c(F)cccc3F)C2)c1O (single isomer, unassigned) [Example 270, 5-[3-(2,6-difluorophenyl)pyrrolidine-1-carbonyl]-1-(2,6-dimethoxyphenyl)-6-hydroxy-2-(2-methyl-1,3-thiazol-4-yl)-1,4-dihydropyrimidin-4-one] | 8.00 to 11.00
8 | COc1cccc(OC)c1-n1c(-c2ccc(F)c(C)c2)nc(=O)c(C(=O)N2CCC(c3ncccc3F)C2)c1O (single isomer, unassigned) [Example 255, 1-(2,6-dimethoxyphenyl)-2-(4-fluoro-3-methylphenyl)-5-[3-(3-fluoropyridin-2-yl)pyrrolidine-1-carbonyl]-6-hydroxy-1,4-dihydropyrimidin-4-one] | 8.00 to 11.00
9 | COc1cccc(OC)c1-n1c(-c2cncc(C)c2)nc(=O)c(C(=O)N2CCC(c3ccccc3F)C2)c1O (single isomer, unassigned) [Example 233, 1-(2,6-dimethoxyphenyl)-5-[3-(2-fluorophenyl)pyrrolidine-1-carbonyl]-6-hydroxy-2-(5-methylpyridin-3-yl)-1,4-dihydropyrimidin-4-one] | 8.00 to 11.00
10 | COc1ccccc1C1CCN(C(=O)c2c(O)n(-c3c(OC)cccc3OC)c(-c3cncc(C)c3)nc2=O)C1 (single isomer, unassigned) [Example 234, 1-(2,6-dimethoxyphenyl)-6-hydroxy-5-[3-(2-methoxyphenyl)pyrrolidine-1-carbonyl]-2-(5-methylpyridin-3-yl)-1,4-dihydropyrimidin-4-one] | 8.00 to 11.00
11 | CCc1cccc(CC)c1-n1c(-c2nc(C)cs2)nc(=O)c(C(=O)N2CCC(c3ncccc3F)C2)c1O (single isomer, unassigned) [Example 307, 1-(2,6-diethylphenyl)-5-[3-(3-fluoropyridin-2-yl)pyrrolidine-1-carbonyl]-6-hydroxy-2-(4-methyl-1,3-thiazol-2-yl)-1,4-dihydropyrimidin-4-one] | 8.00 to 11.00
12 | CCc1cccc(CC)c1-n1c(-c2ccn(CC)n2)nc(=O)c(C(=O)N2CCC(c3ncccc3F)C2)c1O (single isomer, unassigned) [Example 308, 1-(2,6-diethylphenyl)-2-(1-ethyl-1H-pyrazol-3-yl)-5-[3-(3-fluoropyridin-2-yl)pyrrolidine-1-carbonyl]-6-hydroxy-1,4-dihydropyrimidin-4-one] | 8.00 to 11.00
13 | CCc1cccc(CC)c1-n1c(-c2cnn(CC)c2)nc(=O)c(C(=O)N2CCC(c3ccccc3F)C2)c1O (single isomer, unassigned) [Example 310, 1-(2,6-diethylphenyl)-2-(1-ethyl-1H-pyrazol-4-yl)-5-[3-(2-fluorophenyl)pyrrolidine-1-carbonyl]-6-hydroxy-1,4-dihydropyrimidin-4-one] | 8.00 to 11.00

Next, values leading:

Row | pEC50 | SMILES
14 | 7.00 to 8.00 | CCc1cccc(CC)c1-n1c(-c2ccn(CC(C)C)n2)nc(=O)c(C(=O)N2CC[C@@H](c3ccccc3)C2)c1O [Example 317, 1-(2,6-diethylphenyl)-6-hydroxy-2-[1-(2-methylpropyl)-1H-pyrazol-3-yl]-5-[(3S)-3-phenylpyrrolidine-1-carbonyl]-1,4-dihydropyrimidin-4-one]
15 | 8.00 to 11.00 | CCCCc1nc(=O)c(C(=O)N2CCC(c3ncc(F)cc3F)C2)c(O)n1[C@H](c1cccc(C#N)c1)C1CC1 (stereo partly drawn) [Example 351, 3-[(S)-{2-butyl-5-[3-(3,5-difluoropyridin-2-yl)pyrrolidine-1-carbonyl]-4-hydroxy-6-oxo-1,6-dihydropyrimidin-1-yl}(cyclopropyl)methyl]benzonitrile]

same assay, conditions: human APJ, intracellular cAMP accumulation; read-out: hAPJ cAMP EC50 Potency range

Row | SMILES | pEC50
16 | CC[C@@H](c1cc(F)cc(F)c1)n1c(-c2ccn(C)n2)nc(=O)c(C(=O)N2CCC(c3ncccc3F)C2)c1O (single isomer, unassigned) [Example 201] | 8.00 to 11.00
17 | CC[C@@H](c1cc(F)cc(F)c1)n1c(-c2ccn(C)n2)nc(=O)c(C(=O)N2CCC(c3ccc(F)cn3)C2)c1O (single isomer, unassigned) [Example 199] | 8.00 to 11.00
18 | CC[C@@H](c1cc(F)cc(F)c1)n1c(-c2nc(C)cs2)nc(=O)c(C(=O)N2CCC(c3ccccc3F)C2)c1O (single isomer, unassigned) [Example 208] | 8.00 to 11.00
19 | CC[C@@H](c1cc(F)cc(F)c1)n1c(-c2cnn(C)c2)nc(=O)c(C(=O)N2CCC(c3cc(F)ccn3)C2)c1O (single isomer, unassigned) [Example 203] | 8.00 to 11.00

The remaining lines, values ahead:

Row | pEC50 | SMILES
20 | 8.00 to 11.00 | CCCCc1nc(=O)c(C(=O)N2CC[C@H](c3ccccc3)C2)c(O)n1[C@@H](C)C1CC1 [Example 126, 2-butyl-3-[(1S)-1-cyclopropylethyl]-6-hydroxy-5-[(3R)-3-phenylpyrrolidine-1-carbonyl]-3,4-dihydropyrimidin-4-one]
21 | 8.00 to 11.00 | CCOCc1nc(=O)c(C(=O)N2CCC(c3cccc(Cl)c3)C2)c(O)n1-c1c(OC)cccc1OC (racemic) [Example 26, 5-(3-(3-chlorophenyl)pyrrolidine-1-carbonyl)-1-(2,6-dimethoxyphenyl)-2-(ethoxymethyl)-6-hydroxypyrimidin-4(1H)-one]
22 | 6.52 to 7.00 | CCCCc1nc(=O)c(C(=O)N2CC[C@@H](c3ccccc3)C2)c(O)n1[C@H](C)C1CC1 [Example 155, 2-butyl-3-[(1R)-1-cyclopropylethyl]-6-hydroxy-5-[(3S)-3-phenylpyrrolidine-1-carbonyl]-3,4-dihydropyrimidin-4-one]
23 | 8.00 to 11.00 | CCCCc1nc(=O)c(C(=O)N2CC[C@H](c3ccccc3)C2)c(O)n1[C@H](CC)c1ccccc1 [Example 124, 2-butyl-6-hydroxy-3-[(1R)-1-phenylpropyl]-5-[(3R)-3-phenylpyrrolidine-1-carbonyl]-3,4-dihydropyrimidin-4-one]
24 | 7.00 to 8.00 | CCCCc1nc(=O)c(C(=O)N2CC[C@@H](c3ccccc3)C2)c(O)n1C(C)c1cccnc1 (stereo partly drawn) [Example 146, 2-butyl-6-hydroxy-5-[(3S)-3-phenylpyrrolidine-1-carbonyl]-3-[1-(pyridin-3-yl)ethyl]-3,4-dihydropyrimidin-4-one]
25 | 8.00 to 11.00 | COc1cccc(OC)c1-n1c(CC2CC2)nc(=O)c(C(=O)N2CC[C@@H](c3ccccc3)C2)c1O [Example 31, (S)-2-(cyclopropylmethyl)-3-(2,6-dimethoxyphenyl)-6-hydroxy-5-(3-phenylpyrrolidine-1-carbonyl)pyrimidin-4(3H)-one]

same assay, conditions: read-out: hAPJ cAMP EC50 Potency range

Row | pEC50 | SMILES
26 | 8.00 to 11.00 | CCCCc1nc(=O)c(C(=O)N2CCC(c3ccc(F)cn3)C2)c(O)n1-c1c(OC)cccc1OC (single isomer, unassigned) [Example 370, 2-butyl-1-(2,6-dimethoxyphenyl)-5-(3-(5-fluoropyridin-2-yl)pyrrolidine-1-carbonyl)-6-hydroxypyrimidin-4(1H)-one]
27 | 8.00 to 11.00 | CCOCc1nc(=O)c(C(=O)N2CCC(Oc3ccc(Cl)cc3)CC2)c(O)n1-c1c(OC)cccc1OC [Example 377, 5-(4-(4-chlorophenoxy)piperidine-1-carbonyl)-1-(2,6-dimethoxyphenyl)-2-(ethoxymethyl)-6-hydroxypyrimidin-4(1H)-one]
28 | 8.00 to 11.00 | CCCCc1nc(=O)c(C(=O)N2CCN(Cc3cccc(F)c3F)CC2)c(O)n1-c1c(OC)cccc1OC [Example 388, 2-butyl-5-(4-(2,3-difluorobenzyl)piperazine-1-carbonyl)-1-(2,6-dimethoxyphenyl)-6-hydroxypyrimidin-4(1H)-one]
